# Laboratory results reported in patent publication US6559289B1, “Use of growth hormone or analogues thereof for the treatment of mammals with familial hypercholesterolemia” (Salhtech I Goteborg AB, priority 1998, dated 2003).
# “Also recorded” adds a separate entry of the source.
# Key:
# LDL receptors = assay: Ligand blot assay of hepatic LDL-receptors after GH treatment; type: in vivo; conditions: C57BL/6J mice, pooled livers
# Protocol: Ligand blot assay of LDL-receptors was performed using ^125I-labeled rabbit β-migrating very low density lipoprotein (VLDL), as described previously (Rudling et al 1992. PNAS 89; 6983-6987). Membrane proteins were separated by SDS-PAGE (6% poly-acrylamide). After electrotransfer of proteins to nitrocellulose filters and subsequent incubation ^125I-β-VLDL filters were exposed onto DuPont X-ray film at −70° C.
# The absence of LDL receptors in LDLRKO animals was confirmed by ligand blot of hepatic membranes obtained from pooled livers from each animal group, using β-VLDL as ligand (not shown). The expression of LDL receptors in C57BL/6J mice was not altered by GH treatment.
# HMG CoA reductase = assay: Enzymatic activity of HMG CoA reductase in hepatic microsomes after GH infusion; type: in vivo, mice; conditions: for increase of HMG CoA reductase activity: GH 1 mg/kg/day, six days, hepatic microsomes
# Text: (§1) The studies were approved by the Institutional Animal Care and Use Committee, Sweden. Altogether 75 male LDLRKO and 45 C57 BL/6J mice were purchased from Bommice, Denmark. Animals were housed under standardized conditions in groups of ten. The mice had free access to water and chow; the light cycle hours were between 6 a.m. and 6:00 p.m. At the start of the experiment, osmotic mini pumps containing GH were implanted subcutaneously under light ether anesthesia. Non-GH treated animals were sham-operated. Recombinant human GH (Genotropin®), purchased from Pharmacia & Upjohn, was infused at a rate of 1.0 mg/kg per day. After six days of infusion, animals where anesthetized with ether, and blood was collected from the eye. The mice where thereafter killed by cervical dislocation. The livers were immediately removed and when indicated, 1 g of liver was taken for subsequent preparation of microsomes for assay of enzyme activity as described below. The remaining liver was immediately frozen in liquid nitrogen and stored at −70° C.
# (§2) Hepatic microsomes were prepared by differential ultracentrifugation of liver homogenates in the absence of fluoride as previously described (Angelin et al 1984, J Lipid Res. 25; 1159-1166, Einarsson et al. 1986, J. Lipid Res. 27; 82-88, Einarsson et al. 1989, J. Lipid Res. 30; 739-746). Microsomal HMG CoA reductase was assayed from the conversion of [^14C] HMG CoA to mevalonate, and expressed as picomoles formed per mg protein per min. The activity of C7αOH was determined from the formation of 7α-hydroxycholesterol (picomoles/mg protein/min) from endogenous microsomal cholesterol by the use of isotope dilution-mass spectrometry as described in detail. All enzyme assays were carried out in duplicate.
# (§3) The means and standard error of means from three separate pools of all animals are shown.
# LDLRKO mice [1] = assay: FPLC size-fractionation of plasma lipoproteins after GH infusion; type: in vivo
# Protocol: (§4) Equal volumes of plasma from each animal were pooled (1-2 mL) and the density was adjusted to 1.21 g/mL with solid KBr. After ultracentrifugation at 10^5 g for 48 h, the supernatant was removed and adjusted with 0.15 M NaCl, 0.01% etylene diamine tetraacetic acid, (EDTA), 0.02% sodium azide, pH 7.3. An aliquot of this solution was injected on a 54×1.8 cm superose 6B column after filtration through a Millipore […] HA filter, 2-mL fractions were collected.
# (§5) FIGS. 2 and 3 show the lipoprotein patterns in the four groups of animals described in legend to FIG. 1. Equal volumes of plasma from each animal were pooled and subjected to ultracentrifugation at density 1.21. The supernatant was thereafter separated on a Superose 6 column and fractionated.
# C57BL/6J mice [2] = assay: as above; type: in vivo; conditions: pooled plasma, first experiment
# Protocol: as §4, §5
# LDLRKO mice [3] = assay: Cholestyramine, atorvastatin and GH alone and in combination: plasma cholesterol and triglycerides; type: in vivo; conditions: 6 days of treatment
# C7αOH mRNA = C7αOH mRNA levels by solution hybridization after GH infusion; type: in vivo, mice; conditions: GH treatment, liver
# Protocol: (§6) Total nucleic acids were extracted from a sample of liver from each individual and incubated with the respective complementary radio-labeled cRNA probe.
# [4] = test system: cholesterol 7α hydroxylase (C7αOH); assay: Enzymatic activity of C7αOH in hepatic microsomes after GH infusion; type: in vivo, mice; conditions: for increase of C7αOH activity: GH 1 mg/kg/day, six days, hepatic microsomes
# Text: as §1, §2, §3
# HMG CoA reductase mRNA = HMG CoA reductase mRNA levels by solution hybridization after GH infusion; type: in vivo, mice; conditions: liver
# Protocol: as §6
# LDLRKO mice [5] = assay: GH infusion for six days: total plasma cholesterol, triglycerides and total hepatic cholesterol; type: in vivo
# Text: as §1
# (§7) The total hepatic cholesterol was determined, following extraction and subsequent drying under nitrogen from liver samples, as described (Rudling M. J. Lipid Res. 33: 493-50 1992). Total hepatic and plasma cholesterol and plasma triglycerides were assayed using commercial available methods (Boehringer-Mannheim, Mannheim, Germany).
# (§8) Infusion of GH to C57BL/6J and LDLRKO mice. Two sets of ten animals of each strain were continuously infused at a rate of 1 mg/kg/d. After six days of treatment, animals were killed and plasma and livers were collected.
# (§9) To confirm this surprising finding of a plasma cholesterol lowering effect of GH in LDLR deficient animals with pronounced hypercholesterolemia, the previous experiment was repeated. In addition, we wanted to also determine the enzymatic activities of 3-hydroxy-3-methyl-glutaryl coenzyme A, (HMG CoA) reductase, and cholesterol 7α hydroxylase, (C7αOH), being the rate limiting steps in the synthesis of cholesterol and bile acids, respectively. Animals received the same dose of GH that was infused for six days.
# (§10) FIG. 1 is a graph that depicts total plasma cholesterol, triglycerides and total hepatic cholesterol in normal (C57 BL) and LDLRKO (KO) mice±GH (1 mg/kg/day) for 6 days. Each group consisted of 10 animals. Bars indicate SEM.
# (§11) Each group consisted of 10 animals. Bars indicate SEM.
# C57BL/6J mice [6] = assay: as above; type: in vivo; conditions: GH 1 mg/kg/d infusion
# Text: as §1, §7, §8, §9, §10, §11
# [7] = LDLRKO mice, GH 1 mg/kg/d infusion, six days
# [8] = repeated experiment, same GH dose, six days (FIG. 4)
substance,measurement,setting,value
"GH: Recombinant human GH (Genotropin), purchased from Pharmacia & Upjohn, infused at 1.0 mg/kg per day",expression of LDL receptors (ligand blot of hepatic membranes),LDL receptors,not altered
same,increase of HMG CoA reductase activity,HMG CoA reductase; C57/BL6J mice,53%
same,increase of HMG CoA reductase activity,HMG CoA reductase; LDLRKO mice,113%
same,enzymatic activity of HMG CoA reductase (in words),"HMG CoA reductase; LDLRKO mice, GH infusion",increased the activity to the same level as found in normal C57BL/6J animals; also recorded: normalized
same,reduction of lipoprotein cholesterol by FPLC size fraction,"LDLRKO mice [1]; LDLRKO mice, pooled plasma, first experiment (FIG. 2)",within all size fractions
same,reduction in lipoprotein triglycerides by FPLC size fraction,"LDLRKO mice [1]; LDLRKO mice, pooled plasma, first experiment (FIG. 3)",only within VLDL particles
same,plasma lipoprotein cholesterol by FPLC,LDLRKO mice [1]; repeated experiment (FIG. 5),"lowered plasma lipoprotein cholesterol, particularly within VLDL and LDL particles"
same,lipoprotein triglycerides by FPLC,LDLRKO mice [1]; repeated experiment (FIG. 6),not only reduced among VLDL particles but also within LDL and HDL particles
same,lipoprotein triglycerides by FPLC size fraction,C57BL/6J mice [2],increased triglycerides within VLDL particles
same,reduction of plasma cholesterol,LDLRKO mice [3]; groups of 5,10%
same,reduction of plasma triglycerides,LDLRKO mice [3]; groups of 5,approx. 20%
same,reduction in C7αOH mRNA level,C7αOH mRNA; C57/BL6J mice,50%
same,increase of C7αOH mRNA level,C7αOH mRNA; LDLRKO mice,170%
same,increase of C7αOH activity,[4]; C57/BL6J mice,115%
same,increase of C7αOH activity,[4]; LDLRKO mice,46%
same,enzymatic activity of C7αOH (in words),"[4]; LDLRKO mice, GH infusion",stimulated; also recorded: normalized
same,enzymatic activity of C7αOH (in words),"[4]; normal mice, GH treatment",stimulated
same,HMG CoA reductase mRNA levels,HMG CoA reductase mRNA; C57/BL6J mice,no effect
same,increase of HMG CoA reductase mRNA levels,HMG CoA reductase mRNA; LDLRKO mice,20%
same,reduced plasma cholesterol level,"LDLRKO mice [5]; LDL-receptor knockout mice, GH infusion",30-40%
same,total hepatic cholesterol,LDLRKO mice [5]; [7],slight reduction
same,total plasma triglycerides,LDLRKO mice [5]; [7],slight but not significant reduction
same,total plasma cholesterol,"LDLRKO mice [5]; LDLRKO mice, GH 1 mg/kg/d infusion, six days, first experiment",clearly reduced
same,reduction of total plasma cholesterol versus first experiment,LDLRKO mice [5]; [8],slightly less pronounced
same,"total plasma cholesterol and triglycerides, and total hepatic cholesterol versus first experiment",LDLRKO mice [5]; [8],practically identical results
same,total plasma cholesterol,C57BL/6J mice [6]; C57BL/6J (normal) mice,no significant effect; also recorded: no reduction
same,total plasma triglycerides,C57BL/6J mice [6]; C57BL/6J mice,unaltered
same,total hepatic cholesterol,C57BL/6J mice [6]; normal C57BL/6J mice,slightly increased
cholestyramine [reference compound],effect on plasma cholesterol (in words),LDLRKO mice [3]; drug alone,no effects
